Columns and labels:
Test in all cases: kinase binding screen (kinase-tagged T7 phage, qPCR), % Ctrl
[1] = molecular target: MKNK2 (Homo sapiens, UniProt Q9HBH9)
Description: (§1) Percentage kinase inhibition at a set concentration was performed by methods well known in the prior art (Fabian, M. A. et al. Nat. Biotechnol. 2005, 23, 329; Karaman et al. (2008) Nat. Biotechnol. […], 26, 127). Briefly, kinase-tagged T7 phage strains were grown in parallel in 24-well blocks in an E. coli host derived from the BL21 strain. E. coli were grown to log-phase and infected with T7 phage from a frozen stock (multiplicity of infection=0.4) and incubated with shaking at 32° C. until lysis (90-150 minutes). The lysates were centrifuged (6,000×g) and filtered (0.2 μm) to remove cell debris. […] The liganded beads were blocked with excess biotin and washed with blocking buffer (SeaBlock (Pierce); 1% BSA, 0.05% Tween 20, 1 mM DTT) to remove unbound ligand and to reduce non-specific phage binding. […] Test compounds were prepared as 40× stocks in 100% DMSO and directly diluted into the assay. All reactions were performed in polypropylene 384-well plates in a final volume of 0.04 mL. […] The kinase concentration in the eluates was measured by qPCR.

[2] = molecular target: T1, GAK (Homo sapiens, UniProt O14976)
T1 sequence (O14976 1-1311): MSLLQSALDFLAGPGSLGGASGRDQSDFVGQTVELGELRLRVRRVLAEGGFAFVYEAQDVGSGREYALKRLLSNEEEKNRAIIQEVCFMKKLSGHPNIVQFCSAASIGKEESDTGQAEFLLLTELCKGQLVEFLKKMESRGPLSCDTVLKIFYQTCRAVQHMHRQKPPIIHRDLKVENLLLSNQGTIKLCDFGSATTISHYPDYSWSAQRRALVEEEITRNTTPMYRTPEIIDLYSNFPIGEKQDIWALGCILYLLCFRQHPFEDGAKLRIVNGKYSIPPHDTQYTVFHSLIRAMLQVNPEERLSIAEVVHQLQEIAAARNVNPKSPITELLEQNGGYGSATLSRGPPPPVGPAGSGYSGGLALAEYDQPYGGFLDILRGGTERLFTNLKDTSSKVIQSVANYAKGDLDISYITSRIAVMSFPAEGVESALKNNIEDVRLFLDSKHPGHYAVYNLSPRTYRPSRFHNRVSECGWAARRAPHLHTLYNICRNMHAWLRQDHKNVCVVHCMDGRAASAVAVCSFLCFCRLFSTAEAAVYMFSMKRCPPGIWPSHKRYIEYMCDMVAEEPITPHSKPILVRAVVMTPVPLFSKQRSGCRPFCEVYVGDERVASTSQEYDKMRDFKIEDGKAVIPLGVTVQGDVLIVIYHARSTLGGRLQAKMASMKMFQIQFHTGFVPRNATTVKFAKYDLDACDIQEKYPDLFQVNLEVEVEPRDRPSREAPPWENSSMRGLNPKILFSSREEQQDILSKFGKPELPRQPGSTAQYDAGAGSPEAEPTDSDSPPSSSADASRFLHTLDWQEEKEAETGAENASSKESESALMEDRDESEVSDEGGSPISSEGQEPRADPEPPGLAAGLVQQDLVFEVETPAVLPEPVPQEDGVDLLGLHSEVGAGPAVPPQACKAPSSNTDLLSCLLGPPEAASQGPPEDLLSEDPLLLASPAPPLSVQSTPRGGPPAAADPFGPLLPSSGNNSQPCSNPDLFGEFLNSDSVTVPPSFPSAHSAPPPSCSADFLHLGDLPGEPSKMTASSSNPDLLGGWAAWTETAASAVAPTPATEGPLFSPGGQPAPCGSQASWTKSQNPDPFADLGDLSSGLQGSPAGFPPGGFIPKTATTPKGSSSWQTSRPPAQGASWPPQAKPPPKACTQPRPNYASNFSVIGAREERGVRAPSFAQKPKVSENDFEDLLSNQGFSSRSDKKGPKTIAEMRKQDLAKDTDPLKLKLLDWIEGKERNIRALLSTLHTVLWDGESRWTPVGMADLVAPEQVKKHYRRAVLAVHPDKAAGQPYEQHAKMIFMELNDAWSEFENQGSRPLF
Description: as §1

[3] = molecular target: PIK4CB (Homo sapiens, UniProt Q9UBF8)
PIK4CB, sequence (Q9UBF8 whole entry, species assumed): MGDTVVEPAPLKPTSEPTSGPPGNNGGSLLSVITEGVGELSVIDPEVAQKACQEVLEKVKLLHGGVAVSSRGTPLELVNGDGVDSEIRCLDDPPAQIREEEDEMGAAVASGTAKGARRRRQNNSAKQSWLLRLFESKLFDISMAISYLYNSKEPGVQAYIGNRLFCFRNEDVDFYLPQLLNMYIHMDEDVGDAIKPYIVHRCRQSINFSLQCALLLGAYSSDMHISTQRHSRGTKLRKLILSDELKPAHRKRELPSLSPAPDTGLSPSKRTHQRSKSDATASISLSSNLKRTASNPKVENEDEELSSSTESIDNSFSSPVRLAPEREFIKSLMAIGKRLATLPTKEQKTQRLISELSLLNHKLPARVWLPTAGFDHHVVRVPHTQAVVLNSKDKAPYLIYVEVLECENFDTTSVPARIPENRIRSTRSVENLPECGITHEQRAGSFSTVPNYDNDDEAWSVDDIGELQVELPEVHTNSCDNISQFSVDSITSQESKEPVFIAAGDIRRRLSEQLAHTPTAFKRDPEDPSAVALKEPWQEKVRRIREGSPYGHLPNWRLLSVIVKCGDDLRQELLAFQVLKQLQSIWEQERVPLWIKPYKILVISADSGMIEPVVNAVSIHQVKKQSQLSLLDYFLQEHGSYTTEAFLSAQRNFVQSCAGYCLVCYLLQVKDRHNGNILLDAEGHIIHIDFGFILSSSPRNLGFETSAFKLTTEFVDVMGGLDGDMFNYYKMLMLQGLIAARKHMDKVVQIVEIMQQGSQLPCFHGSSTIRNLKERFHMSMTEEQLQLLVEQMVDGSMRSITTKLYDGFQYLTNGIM
Description: as §1

[4] = molecular target: RPS6KA2(Kin.Dom.2-C-terminal) (Homo sapiens, UniProt Q15349)
RPS6KA2(Kin.Dom.2-C-terminal), sequence (Q15349 415-672 limits assumed, species assumed): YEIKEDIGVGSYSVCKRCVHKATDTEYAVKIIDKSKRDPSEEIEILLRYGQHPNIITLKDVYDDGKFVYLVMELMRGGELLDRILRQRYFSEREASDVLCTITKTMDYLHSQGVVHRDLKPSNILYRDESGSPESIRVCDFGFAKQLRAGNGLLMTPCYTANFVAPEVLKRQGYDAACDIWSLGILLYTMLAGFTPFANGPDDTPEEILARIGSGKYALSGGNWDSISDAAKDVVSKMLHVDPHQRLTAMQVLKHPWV
Description: as §1

[5] = molecular target: T2, RPS6KA6(Kin.Dom.2-C-terminal) (Homo sapiens, UniProt Q9UK32)
T2 sequence (Q9UK32 426-683 limits assumed): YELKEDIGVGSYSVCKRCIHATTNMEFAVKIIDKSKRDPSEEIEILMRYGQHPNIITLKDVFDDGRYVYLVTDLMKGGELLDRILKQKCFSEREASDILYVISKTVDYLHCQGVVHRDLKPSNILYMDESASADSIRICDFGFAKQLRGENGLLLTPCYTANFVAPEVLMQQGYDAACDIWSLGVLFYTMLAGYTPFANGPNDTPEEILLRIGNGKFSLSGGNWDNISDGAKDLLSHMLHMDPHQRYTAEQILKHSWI
Description: as §1

MKNK2, sequence (Q9HBH9 whole entry, species assumed): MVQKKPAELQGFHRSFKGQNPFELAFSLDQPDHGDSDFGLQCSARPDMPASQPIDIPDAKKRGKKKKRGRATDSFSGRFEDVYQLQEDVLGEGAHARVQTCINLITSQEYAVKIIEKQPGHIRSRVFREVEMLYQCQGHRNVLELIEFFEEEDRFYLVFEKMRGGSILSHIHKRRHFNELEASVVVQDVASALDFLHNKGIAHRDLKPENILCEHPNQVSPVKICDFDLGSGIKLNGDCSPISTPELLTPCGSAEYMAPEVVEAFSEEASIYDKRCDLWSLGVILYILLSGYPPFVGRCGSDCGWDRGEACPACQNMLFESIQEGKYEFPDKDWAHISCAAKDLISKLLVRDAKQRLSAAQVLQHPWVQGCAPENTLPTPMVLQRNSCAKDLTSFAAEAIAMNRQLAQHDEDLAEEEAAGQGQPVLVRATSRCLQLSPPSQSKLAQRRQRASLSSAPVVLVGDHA

SMILES | remaining activity at 1 µM [1] [%] | remaining activity at 1 µM [2] [%] | remaining activity at 1 µM [3] [%] | remaining activity at 1 µM [4] [%] | remaining activity at 1 µM [5] [%] | remaining activity at 10 µM ([1]; 10 μM) [%] | remaining activity at 10 µM ([2]; 10 μM) [%] | remaining activity at 10 µM ([3]; 10 μM) [%] | remaining activity at 10 µM ([4]; 10 μM) [%] | remaining activity at 10 µM ([5]; 10 μM) [%]
Nc1nc2c(-c3ccccn3)nccc2[nH]1 [drawing 35, 4-(pyrid-2-yl)-1H-imidazo[4,5-c]pyridin-2-amine] | 86 | 54 | 88 | 68 | 49 |  |  |  |  | 
Nc1nc2c(-c3cc(Br)c(Br)[nH]3)nccc2[nH]1 [Ageladine A, ageladine A, reference compound] | 2.5 | 45 | 66 | 42 | 51 | 69 | 19 | 50 | 25 | 34
Nc1nc2c(-c3cnc4ccccc4c3)nccc2[nH]1 [drawing 36, 4-(quinolin-3-yl)-1H-imidazo[4,5-c]pyridin-2-amine] | 100 | 91 | 37 | 100 | 100 |  |  |  |  | 

From patent US20110152313A1 (MACQUARIE UNIVERSITY, priority 2008, published 2011)
